Assay results reported in US20090274739A1, “METHODS AND COMPOSITIONS FOR TREATING NEOINTIMAL HYPERPLASIA” (THE TRUSTEES OF COLUMBIA UNIVERSITY IN THE CITY OF NEW YORK, priority 2006, published 2009).

Assays:
[1] = tested on: MAPK (p44/p42, ERK1/2) phosphorylation; assay: Immunoblot of MAPK (ERK1/2, p44/p42) phosphorylation in VSMC; assay type: cell-based, mouse
Experimental: Western blot analysis: The cells were plated in a 100-mm culture dish in DMEM supplemented with 20% FBS for 24 h at 37° C., followed by serum starvation for 48 h. Cells were then treated with different reagents for 30 min. Cells were subsequently lysed on ice for 30 min in RIPA buffer [150 mM NaCl, 100 mM Tris (pH 8.0), 1% Triton X-100, 1% deoxycholic acid, 0.1% SDS, 5 mM EDTA, and 10 mM NaF] supplemented with 1 mM sodium vanadate, 2 mM leupeptin, 2 mM aprotinin, 1 mM phenylmethylsulfonyl fluoride (PMSF), 1 mM DTT, and 2 mM pepstatin A. After centrifugation at 14,000 rpm for 30 min, the supernatant was harvested as the total cellular protein extract, and stored at −70° C. The protein concentration was determined using Bio-Rad protein assay reagent (Richmond, Calif.). The total cellular protein extracts were separated by SDS-polyacrylamide gel electrophoresis (SDS-PAGE) and transferred to nitrocellulose membrane in 20 mM Tris-HCl (pH 8.0) containing 150 mM glycine and 20% (v/v) methanol.
Membranes were blocked with 5% nonfat dried milk in PBS containing 0.05% Tween 20 and incubated with antibodies against phospho-(Thr^202/Tyr^204) p42/p44^MAPK and p42/p44^MAPK, phospho-Akt([…]) and anti-Akt, p70^S6K, 4EBP-1. Blots were washed three times in PBS buffer, followed by incubation with the appropriate HRP-linked IgG. The specific proteins in the blots were visualized using an enhanced chemiluminescence reagent (NEN, Boston, Mass.).
VSMC were plated on 100-mm dishes, serum starved for 72 h in DMEM containing 0.1% FBS, and stimulated with 0.6 or 6 nM (10 or 100 ng/ml) leptin. Extracts were prepared by brief sonication in HKM buffer [40 mM HEPES-KOH (pH 7.6), 7.5 mM MgCl2, 0.5 mM DTT] or, in the case of Akt phosphorylation studies, by lysing cells on ice for 30 min in RIPA buffer. 70 μg of protein per sample were subjected to immunoblotting by standards protocols. Imaging and densitometry were performed on an Odyssey infrared system (Li-Cor, Lincoln, Neb.).

[2] = tested on: murine femoral artery wire injury model (neointimal hyperplasia); assay: Femoral artery wire injury model, morphometry of neointimal formation; assay type: in vivo, mouse; parameters: Lumen / Media / Intima / TVA (total vessel area): unit not given here
Source text: (§1) Animal Models and Drug Treatments. Wild type C57BL/6J background mice and mice deficient for leptin (C57BL/6J-Lepob; ob/ob) or the leptin receptor (C57BL/6J-m+/+Lepdb; db/db) were purchased from Charles Jackson Laboratories, Maine. Mice were obtained at ages 6-8 weeks old and average weight 15 g. Animals were fed standard rodent chow and tap water ad libitum. Procedures and animal care were approved by the Institutional Animal Care and Use Committee. Mice were subjected to femoral artery wire injury or sham injury described below 24 hr prior to starting pharmacological treatments. Sirolimus was administered by intraperitoneal injection once per day for 14 days as a suspension in 0.2% sodium carboxymethyl cellulose and 0.25% polysorbate-80; duplicate experiments were accomplished with 0.5% DMSO. Leptin or LY294002 was administered by intraperitoneal injection once per day for 14 days as a suspension in PBS. Plasma leptin levels were measured at baseline, 3, 6, and 10 hr after leptin injection using an ELISA assay (R&D). Leptin plus the vehicle used for both sirolimus and LY294002 was used as the control group for the treatment groups with sirolimus and LY294002. After the 2-week treatment, animals were processed for femoral artery morphometry.
Femoral Artery Injury Model. Endoluminal injury of bilateral femoral arteries was performed according to the method of Roque et al. with minor modification 27. […] Briefly, to denude and dilate femoral arteries, a 0.014″ angioplasty guidewire (Guidant) was passed endoluminally 3 times to the level of the aortic bifurcation. A sham protocol was performed where the arteries underwent dissection, clamping, and ligature without passage of the guidewire.
Computer-aided quantitative morphometry to measure luminal, medial, intimal, and vessel areas were performed as previously described 27 with minor modification. Mice were euthanized via CO2 asphyxiation prior to en bloc excision of hind limbs. Briefly, multiple segments of the common femoral artery at the level of injury were fixed in 10% Zinc Formalin, embedded in paraffin, sectioned at […] thickness, and subjected to Elastic-Van Gieson staining at a Columbia University Core Histology facility. In many cases, arteries underwent immunohistochemical staining for smooth muscle a-actin to highlight the media and neointima. Photomicrographs were captured on Adobe Photoshop 7.0 and transferred to Scion Image software for quantitative analysis. Specimens were analyzed by two independent operators blinded to the treatment groups. Microsoft Excel software was used to calculate the RNI values from I/M ratios in the absence and presence of pharmacological inhibitors, as detailed in the text.
Surgical Procedures: The mouse femoral artery wire injury model of was used with minor modifications (Roque M, et al., Arterioscler Thromb Vasc Biol, 2000, 20(2):335-42). Briefly, forty-two male mice were studied. Endoluminal injury to the common femoral artery was produced by either 3 passages of a 0.014″ diameter angioplasty guidewire (Guidant, Santa Clara, Calif.). […] While being viewed under a surgical microscope, a groin incision was made and the femoral artery was isolated and temporarily clamped distal to the inguinal ligament. An arteriotomy was performed and the guidewire was passed 3 times to the level of the aortic bifurcation. The artery was then ligated proximal to the arteriotomy. A sham protocol was carried out on the contralateral side where the arteries underwent dissection, temporary clamping, and ligature, without passage of the wire. The formation of the neointima was confirmed in this model as being comprised mainly of VSMCs through immunohistochemical staining of representative sections for α-smooth muscle actin via a commercial kit (Sigma).
For all treatment protocols, rapamycin was administered by intraperitoneal injection once per day, for 14 days, as a suspension in 0.2% sodium carboxymethyl cellulose and 0.25% polysorbate-80. […]

[3] = mouse, in vivo
Source text: as §1, with “Leptin or LY294002 was administered by intraperitoneal injection once per day for 14 days as a suspension in PBS.” left out, “Leptin plus the vehicle used for both sirolimus and LY294002 was used as the control group for the treatment groups with sirolimus and LY294002. After the 2-week treatment, animals were processed for femoral artery morphometry.” left out
For leptin measurements, plasma was obtained by drawing 100 μL of retro-orbital whole blood into a heparinized tube and removing cells by centrifugation at 20,000 m/s^2 for 5 min. Plasma leptin levels were measured at baseline, 3, 6, and 10 h after leptin injection in WT mice or at baseline in ob/ob and db/db mice using the mouse leptin TiterZyme EIA kit (Assay Designs, Ann Arbor, Mich.).

[4] = wire injury, leptin 0.4 mg/kg daily i.p. 14 days, mean ± SD

With “Leptin: recombinant leptin; hormone derived from adipose tissue, encoded by the Ob gene” the “phosphorylation of the p44 and p42 forms of MAPK” value ([1]; Example 1, leptin 10 ng/mL) was “stimulated the phosphorylation”, the “time of maximum ERK1/2 phosphorylation” value ([1]; Example 2, leptin 100 ng/ml, decreasing thereafter at 45 min) was 10 min and the “phosphorylation of MAPK” value ([1]; Example 5, leptin 6 nM) was “stimulated”. For the same substance, the “intimal area and intimal:media ratio” value ([2]; Example 2, leptin 0.4 mg/kg/d i.p. 14 days vs vehicle) was “significantly increased”, the “I/M (intima:media ratio)” value [2, 4] was 1.883 ± 0.140 and the Intima [2, 4] was 0.028 ± 0.004. The Lumen [2, 4] was 0.010 ± 0.004, the Media [2, 4] was 0.015 ± 0.001 and the “TVA (total vessel area)” value [2, 4] was 0.053 ± 0.007. For the same substance, the “leptin level 3 h after injection relative to untreated WT mice” value [3] was ~20 times and the “leptin level 3 hr after injection relative to untreated WT mice” value [3] was 15 times.
